The values that follow come from ChEMBL document CHEMBL1150011 (Bioorg Med Chem Lett, 1996).

The test system of assay [1] is Rattus norvegicus. The assay can be described thus: Diuretic activity in rat was determined by measuring urine volume at a dose of 10 mg/kg upon oral administration. The format is functional.
Assay [2] has as its system Rattus norvegicus. The assay is described as follows: Diuretic activity in rat was determined by measuring sodium excretion at a dose of 10 mg/kg upon oral administration. The format is functional, Urine.
In assay [3] the target is T1, Adenosine receptor A1 (Cavia porcellus, UniProt P47745).
T1 sequence (P47745 whole entry): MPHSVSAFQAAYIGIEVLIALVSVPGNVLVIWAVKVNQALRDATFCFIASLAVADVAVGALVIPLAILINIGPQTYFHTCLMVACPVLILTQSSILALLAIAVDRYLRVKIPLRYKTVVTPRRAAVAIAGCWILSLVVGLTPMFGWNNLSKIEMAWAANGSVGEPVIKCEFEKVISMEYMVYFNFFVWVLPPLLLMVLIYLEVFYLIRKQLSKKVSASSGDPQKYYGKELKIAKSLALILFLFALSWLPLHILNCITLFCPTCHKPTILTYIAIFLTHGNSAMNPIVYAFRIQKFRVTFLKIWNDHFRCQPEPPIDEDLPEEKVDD
The assay can be described thus: Inhibition of adenosine induced negative inotropic activity against guinea-pig atria (Adenosine A1 receptor). Type of assay: functional.

The target of assay [4] is T2, Adenosine receptor A1 (Rattus norvegicus, UniProt P25099).
T2 sequence (P25099 whole entry): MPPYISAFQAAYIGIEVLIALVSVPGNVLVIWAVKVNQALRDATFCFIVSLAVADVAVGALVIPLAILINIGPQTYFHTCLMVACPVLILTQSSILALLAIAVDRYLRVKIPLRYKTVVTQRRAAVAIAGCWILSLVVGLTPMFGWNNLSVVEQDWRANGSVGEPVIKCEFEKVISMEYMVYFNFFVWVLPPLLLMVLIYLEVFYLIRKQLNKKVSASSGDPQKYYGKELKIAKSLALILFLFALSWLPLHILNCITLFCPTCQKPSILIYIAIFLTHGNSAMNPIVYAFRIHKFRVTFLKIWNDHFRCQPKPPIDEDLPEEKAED
The assay is described as follows: Inhibition of [3H]CHA binding against Adenosine A1 receptors of rat cortical membranes. Type of assay: cell membranes, Membrane.

The target of assay [5] is T1, Adenosine receptor A1. The assay is described as follows: Inhibition of adenosine induced negative inotropic activity against guinea-pig atria (Adenosine A1 receptor) at 10 nM. The format is functional.

By IC50 is commonly meant the point on the concentration scale where inhibition reaches its midpoint.

The structures appear in SMILES notation.

For `CC[C@@H]1CCCCN1C(=O)/C=C/c1c(-c2ccccc2)nn2ccccc12`, the “Urine volume (% of control)” value in the assay on Rattus norvegicus [1] was found to be 201%. Moreover, in the assay on Rattus norvegicus [2], the “Sodium excretion (% of control)” value turned out to be 220%.

For the molecule `O=C(/C=C/c1c(-c2ccccc2)nn2ccccc12)N1CCCCC1`, in the assay on Rattus norvegicus [1], the “Urine volume (% of control)” value stood at 195%. In addition, in the assay with Rattus norvegicus [2], the “Sodium excretion (% of control)” value amounted to 179%.

For `CC[C@H]1CCCCN1C(=O)/C=C/c1c(-c2ccccc2)nn2ccccc12`, the “Urine volume (% of control)” value with Rattus norvegicus [1] turned out to be 94%. The “Sodium excretion (% of control)” value with Rattus norvegicus [2] worked out at 91%.

As to `O=C(/C=C/c1c(-c2ccccc2)nn2ccccc12)N1CCCC[C@H]1CCO`, the IC50 came out at 0.56 nM on Adenosine receptor A1 [3] and 17.2 nM on Adenosine receptor A1 [4]. In the assay on Rattus norvegicus [1], the “Urine volume (% of control)” value amounted to 272%. The “Sodium excretion (% of control)” value in the assay on Rattus norvegicus [2] is 280%.

`CCC1CCCCN1C(=O)/C=C/c1c(-c2ccccc2)nc2sc(C)nn12` (stereo unspecified) yielded a half-inhibitory concentration (IC50) against Adenosine receptor A1 [5] of 91 nM. In addition, the “Urine volume (% of control)” value in the assay with Rattus norvegicus [1] is 242%. Further, the “Sodium excretion (% of control)” value with Rattus norvegicus [2] came to 278%.

As to `O=C(/C=C/c1c(-c2ccccc2)nn2ccccc12)N1CCCC[C@@H]1CCO` [FK453], in the assay with Rattus norvegicus [1], the “Urine volume (% of control)” value was found to be 96%. The molecule also gave a half-maximal inhibitory concentration (IC50) at Adenosine receptor A1 [4] of 10100 nM. The “Sodium excretion (% of control)” value in the assay with Rattus norvegicus [2] is 96%.
